These results are taken from publication PMC3005896 (Autoimmune Diseases, 2010).

As usually defined, the Cmax is the highest concentration seen after dosing. In general, EC50 refers to the concentration that produces a half-maximal response.

For data set [1], the system named is CAR-induced pleurisy in CD1 male mice. Conditions: 40 mg/kg suspension s.c. 24 h and 1 h before CAR, vs vehicle.
The subject of data set [2] is glucocorticoid receptor (GR). Conditions: data not shown. As to the method:
(§1) Cells were incubated overnight with the various compounds and luciferase activity was then determined in cell lysates. Transactivation activity of the human mineralocorticoid receptor (MR) and peroxisome proliferator-activated receptors (PPAR-γ and PPAR-δ) used the fluorimetric Gene Blazer β-lactamase assay system (InVitrogen) following the manufacturer's instructions. Assays were conducted on 384-well plates using a fluorogenic substrate (CCF4-AM, InVitrogen).

Data set [3] has as its target PPAR-γ (Homo sapiens, UniProt P37231). Conditions: data not shown. The method, then: as §1
Data set [4] concerns PLP(139–151)-induced EAE in female SJL/J mice. From the text:
Mice Female SJL/J mice (6 to 8 weeks of age; Charles River Italia, Udine, Italy) were maintained in a pathogen-free vivarium at the University of Catania, School of Medicine (Catania, Italy) receiving ad libitum sterilized food and water, and were adapted to the ambient environment for at least 7 days before the start of the study. Animal care and use was in compliance with all applicable regulations for the protection of animals used for experimental and other scientific purposes.
Disease symptoms were monitored daily and scored in a blinded manner using the following scale: 0: no illness, 1: flaccid tail, 2: moderate paraparesis, 3: severe paraparesis, 4: moribund state, 5: death. Mice were randomized to each experimental group before immunization to induce EAE. […] Statistical analysis of cumulative clinical scores was performed by ANOVA analysis for unpaired data. A P-value <.05 was considered to be statistically significant. For statistical analysis, the mice that succumbed to EAE were assigned 5 only for the day of death and then were deleted from the experimental group.

Data set [5] has as its target T1, human mineralocorticoid receptor (MR) (Homo sapiens, UniProt P08235).
T1 sequence (P08235 726-984 limits assumed): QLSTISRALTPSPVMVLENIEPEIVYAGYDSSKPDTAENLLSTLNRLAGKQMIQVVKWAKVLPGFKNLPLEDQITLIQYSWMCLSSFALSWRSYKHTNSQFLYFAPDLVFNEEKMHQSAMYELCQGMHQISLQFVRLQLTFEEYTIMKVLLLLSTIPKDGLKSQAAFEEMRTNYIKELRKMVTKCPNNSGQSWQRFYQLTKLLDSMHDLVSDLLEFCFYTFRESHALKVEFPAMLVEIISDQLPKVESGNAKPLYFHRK
The data set can be described thus: Gene Blazer β-lactamase transactivation assay, MR. Conditions: data not shown. Type of data set: cell-based. As to the method: as §1

Data set [6] deals with LPS-induced shock in CD1 mice. Conditions: for Serum levels of TNFα: male CD-1 mice, LPS 0.5 mg. As to the method:
Six-week-old CD1 mice (Charles River, Calco, Italy) were kept under standard laboratory (nonspecific pathogen free) conditions at the University of Catania, School of Medicine, and were housed in a controlled environment and provided with standard rodent chow and water. Animal care and use was in compliance with all applicable regulations on protection of animals used for experimental and other scientific purposes.
To induce lethal endotoxemia, the mice were injected i.p. with 1 mg LPS (Sigma Chimica, Milan, Italy, code L6011, Lot K4096). […] In some studies (performed by Harbor Biosciences) male mice (n = 4 per group) were used and serum was taken 2 hours after LPS (0.5 mg) challenge, to measure levels of TNFα by ELISA.
All P-values of less than .05 were considered significant. For statistical analysis each group is compared to that of vehicle-treated control.

Data set [7] has as its target T2, PPAR-δ (Homo sapiens, UniProt Q03181).
T2 sequence (Q03181 211-441 limits assumed): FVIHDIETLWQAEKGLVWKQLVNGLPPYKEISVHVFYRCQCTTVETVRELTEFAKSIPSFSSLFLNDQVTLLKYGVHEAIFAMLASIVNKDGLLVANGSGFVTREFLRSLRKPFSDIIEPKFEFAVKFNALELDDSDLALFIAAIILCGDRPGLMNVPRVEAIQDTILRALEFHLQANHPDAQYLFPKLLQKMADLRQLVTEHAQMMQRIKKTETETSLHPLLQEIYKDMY
The data set can be described thus: Gene Blazer β-lactamase transactivation assay, PPAR-δ. The data set is classed as cell-based. As to the method:
as §1

For data set [8] the following is noted: humans, injection of 100–200 mg suspension formulation, for several weeks; ref Stickney et al., in preparation; cited from earlier work.
Data set [9] relates to PLP(139–151)-induced EAE in female SJL/J mice. Conditions: 40 mg/kg soluble formulation (cyclodextran) s.c. daily from onset.
The nature of data set [10]: in vivo. Conditions: mouse.
Data set [11] concerns ERα/β. Conditions: read-out: Transactivation EC50, T47D-kBluc; ERE-luciferase; cells express ERα and ERβ; mean ± SEM (n). The method, then: as §1
[12] abbreviates: soluble formulation (cyclodextran), Harbor Biosciences, unpublished observations.

Read-outs that look alike come from different tables or passages of the source.

Chain of PPAR-γ (P37231 238-505 limits assumed): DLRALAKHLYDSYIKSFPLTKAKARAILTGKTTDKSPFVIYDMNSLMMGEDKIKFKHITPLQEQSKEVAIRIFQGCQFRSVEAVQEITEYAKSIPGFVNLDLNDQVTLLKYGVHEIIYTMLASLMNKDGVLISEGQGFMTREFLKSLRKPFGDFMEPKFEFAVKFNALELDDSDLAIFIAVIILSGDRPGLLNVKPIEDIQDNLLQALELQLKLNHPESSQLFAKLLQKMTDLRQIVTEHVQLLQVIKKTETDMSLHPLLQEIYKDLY

Turning to `C[C@]12CC[C@H]3[C@@H](CC=C4C[C@@H](O)CC[C@@]43C)[C@@H]1CC[C@@H]2O` [5-AED, androst-5-ene-3β,17β-diol], the “IL-6 level in pleural rinse” value in data set [1] (at 4 and 5 hours) is reported as “significantly reduced”. Further, the “TNFα level in pleural rinse” value in data set [1] (at 4 hours) was “significantly reduced”. Also, the “Time to Cmax” value is “within one hour” (40 mg/kg as suspension, mice) and “within minutes” under setting [12]. Further, the “Time to complete clearance” value under setting [12] lay in the range of 8 to 12 h. Further, in [2], the “Transactivation of human glucocorticoid receptor” value was “does not transactivate”. For the same molecule, the “Transactivation of PPAR-γ” value in [3] was “does not transactivate”. Further, in data set [4] (0.4 mg/kg suspension s.c., after day 17), the Mortality is 6/10. In addition, the Cumulative disease score in data set [4] (0.4 mg/kg suspension s.c., surviving mice only) was determined as 14.5 ± 3.7; in data set [4] (4 mg/kg suspension s.c. from Day 8 to Day 30, trend, vehicle 25.4 ± 9.3) it was 18.1 ± 9.9; in data set [4] (40 mg/kg suspension s.c. from Day 8 to Day 30, vehicle 25.4 ± 9.3), 14.4 ± 9.1. The Lethality entry in data set [4] (4 mg/kg suspension s.c.) is “No lethality”; in data set [4] (40 mg/kg suspension s.c.), “No lethality”; in data set [6] (40 mg/kg s.c. given 4 hours after LPS, data not shown), 100%; in data set [6] (40 mg/kg s.c. given 8 hours after LPS, data not shown) it was 100%; in data set [6] (40 mg/kg s.c. given 24 hours after LPS, data not shown), 100%; in [6] (40 mg/kg s.c. given 24 hours before LPS (1 mg i.p.), 72 h, vehicle 100%), 50%. In addition, the “Incidence of EAE” value in data set [4] (all groups (0.4, 4.0, 40 mg/kg)) came to 100%. Besides, the Minimally effective dose in data set [4] (suspension s.c.) fell in the range of 4 to 40 mg/kg. The “Transactivation of human mineralocorticoid receptor” value in data set [5] is reported as “does not transactivate”. Further, the “Serum levels of TNFα” value in data set [6] (0.4 mg/kg s.c.) is on record as “not effective”; in data set [6] (4.0 mg/kg s.c.), “not effective”; in data set [6] (40 mg/kg suspension s.c., vs vehicle, P < .05), “significantly (P < .05) reduced”. In addition, the “Transactivation of PPAR-δ” value in [7] (data not shown) was “does not transactivate”. Moreover, in [8], the “Sustained serum levels of 5-AED” value is reported as ~ 30 ng/mL. For the same molecule, the “EAE clinical score vs vehicle” value in [9] is “no significant differences”. The peak concentration (Cmax) in data set [10] was less than 5 µg/mL; in data set [10] (40 mg/kg), roughly 0.1 µg/mL. This molecule yielded a concentration at 96 h in data set [10] (40 mg/kg) of roughly 0.01 µg/mL.

Take `C[C@]12CCC(=O)C[C@@H]1CC[C@@H]1[C@@H]2CC[C@]2(C)[C@@H](O)CC[C@@H]12` [DHT, dihydrotestosterone]: the EC50 in [11] came to […].

`CCCc1c(OCCCOc2ccc(OCC(=O)O)cc2)ccc(C(C)=O)c1O` [L165,041, reference compound] returned an EC50 in [7] (reference compound) of 0.0011 µM.
